ChEMBL document CHEMBL4619722, “Alanine scan-guided synthesis and biological evaluation of analogues of culicinin D, a potent anticancer peptaibol” (Bioorg Med Chem Lett, 2020)
Numbered stars: 1 amine (or outer) side, 2 acyl side, 3 side chain; on linkers, the order of the positions; unused ones are H or OH. Square brackets hold non-standard residues; d marks the D form. Peptide text beside a SMILES is read from it. * marks the point of attachment. ξ: configuration not given here. X1 = CCC(=O)C[C@H](O)C[C@@H](C)C[C@H](N[*:1])C(=O)[*:2]; Gly(1-adamantyl) = N[C@H](C(=O)O)C12CC3CC(CC(C3)C1)C2; Nva(5-pentanoyl) = CCCCC(=O)CCC[C@H](N)C(=O)O; NH((S)CH(Me)CH2NHC2H4OH) = C[C@@H](CNCCO)N*; Gly(octyl) = CCCCCCCC[C@H](N)C(=O)O; Cha = N[C@@H](CC1CCCCC1)C(=O)O; Nle = CCCC[C@H](N)C(=O)O; Ac5c = NC1(C(=O)O)CCCC1; Nva = CCC[C@H](N)C(=O)O; Aib = CC(C)(N)C(=O)O; Butyryl = CCCC(=O)*; ξP = O=C(O)C1CCCN1; βAla = NCCC(=O)O

Experiments:
Assay type in all cases: functional, cell-based
[1] = tested on: NCI-H460; experiment: Antiproliferative activity against human NCI-H460 cells
[2] = tested on: T47D; experiment: Antiproliferative activity against human T47D cells
[3] = tested on: MDA-MB-468; experiment: Antiproliferative activity against human MDA-MB-468 cells
[4] = tested on: SK-BR-3; experiment: Antiproliferative activity against human SKBR3 cells

Row | Compound | IC50 [1] [nM] | IC50 [2] [nM] | IC50 [3] [nM] | IC50 [4] [nM]
1 | CCCCCCCC[C@H](NC(=O)C(C)(C)NC(=O)C(C)(C)NC(=O)[C@H](Cc1ccc(O)cc1)NC(=O)[C@@H]1CCCN1C(=O)CCC)C(=O)N[C@@H](CC(C)C)C(=O)NC(C)(C)C(=O)N[C@@H](CC(C)C)C(=O)NCCC(=O)N[C@@H](C)CNCCO (Butyryl-PY[Aib][Aib][Gly(octyl)]L[Aib]L[βAla]-{NH((S)CH(Me)CH2NHC2H4OH)}) | 71 | 32 | 35 | 155
2 | CCCC[C@H](NC(=O)C(C)(C)NC(=O)C(C)(C)NC(=O)[C@H](C[C@H](C)C[C@@H](O)CC(=O)CC)NC(=O)[C@@H]1CCCN1C(=O)CCC)C(=O)N[C@@H](CC(C)C)C(=O)NC(C)(C)C(=O)N[C@@H](CC(C)C)C(=O)NCCC(=O)N[C@@H](C)CNCCO (Butyryl-P[X1][Aib][Aib][Nle]L[Aib]L[βAla]-{NH((S)CH(Me)CH2NHC2H4OH)}) | > 500 | 124 | 90 | > 1000
3 | CCCCCCCC[C@H](NC(=O)C(C)(C)NC(=O)C(C)(C)NC(=O)[C@H](CCCC(=O)CCCC)NC(=O)C1CCCN1C(=O)CCC)C(=O)N[C@@H](CC(C)C)C(=O)N[C@@H](C)C(=O)N[C@@H](C)C(=O)NCCC(=O)N[C@@H](C)CNCCO (stereo partly drawn) (Butyryl-[ξP][Nva(5-pentanoyl)][Aib][Aib][Gly(octyl)]LAA[βAla]-{NH((S)CH(Me)CH2NHC2H4OH)}) | 96 | 101 | 314 | > 1000
4 | CCCCCCCC[C@H](NC(=O)C(C)(C)NC(=O)C(C)(C)NC(=O)[C@H](CS)NC(=O)[C@@H]1CCCN1C(=O)CCC)C(=O)N[C@@H](CC(C)C)C(=O)NC(C)(C)C(=O)N[C@@H](CC(C)C)C(=O)NCCC(=O)N[C@@H](C)CNCCO (Butyryl-PC[Aib][Aib][Gly(octyl)]L[Aib]L[βAla]-{NH((S)CH(Me)CH2NHC2H4OH)}) | 249 | 166 | 262 | > 1000
5 | CCCCCCCC[C@H](NC(=O)C(C)(C)NC(=O)C(C)(C)NC(=O)[C@H](Cc1c[nH]cn1)NC(=O)[C@@H]1CCCN1C(=O)CCC)C(=O)N[C@@H](CC(C)C)C(=O)NC(C)(C)C(=O)N[C@@H](CC(C)C)C(=O)NCCC(=O)N[C@@H](C)CNCCO (Butyryl-PH[Aib][Aib][Gly(octyl)]L[Aib]L[βAla]-{NH((S)CH(Me)CH2NHC2H4OH)}) | 456 | 151 | 136 | > 1000
6 | CCCC(=O)N1CCC[C@H]1C(=O)N[C@@H](C[C@H](C)C[C@@H](O)CC(=O)CC)C(=O)NC(C)(C)C(=O)NC(C)(C)C(=O)N[C@@H](CC(C)C)C(=O)N[C@@H](CC(C)C)C(=O)NC(C)(C)C(=O)N[C@@H](CC(C)C)C(=O)NCCC(=O)N[C@@H](C)CNCCO (Butyryl-P[X1][Aib][Aib]LL[Aib]L[βAla]-{NH((S)CH(Me)CH2NHC2H4OH)}) | 496 | 130 | 90 | > 1000
7 | CCCC(=O)N1CCC[C@H]1C(=O)N[C@@H](C[C@H](C)C[C@@H](O)CC(=O)CC)C(=O)NC(C)(C)C(=O)NC(C)(C)C(=O)N[C@@H](CCC)C(=O)N[C@@H](CC(C)C)C(=O)NC(C)(C)C(=O)N[C@@H](CC(C)C)C(=O)NCCC(=O)N[C@@H](C)CNCCO (Butyryl-P[X1][Aib][Aib][Nva]L[Aib]L[βAla]-{NH((S)CH(Me)CH2NHC2H4OH)}) | > 1000 | 420 | 274 | > 1000

Now those with a lower IC50 [1], led by results:

Row | IC50 [1] [nM] | IC50 [2] [nM] | IC50 [3] [nM] | IC50 [4] [nM] | Compound
8 | 2 | 4 | 3 | 12 | CCCCCCCC[C@H](NC(=O)C(C)(C)NC(=O)C(C)(C)NC(=O)[C@H](CC1CCCCC1)NC(=O)[C@@H]1CCCN1C(=O)CCC)C(=O)N[C@@H](CC(C)C)C(=O)NC(C)(C)C(=O)N[C@@H](CC(C)C)C(=O)NCCC(=O)N[C@@H](C)CNCCO (Butyryl-P[Cha][Aib][Aib][Gly(octyl)]L[Aib]L[βAla]-{NH((S)CH(Me)CH2NHC2H4OH)})
9 | 10 | 8 | 11 | 43 | CCCCCCCC[C@H](NC(=O)C(C)(C)NC(=O)C(C)(C)NC(=O)[C@H](CCSC)NC(=O)[C@@H]1CCCN1C(=O)CCC)C(=O)N[C@@H](CC(C)C)C(=O)NC(C)(C)C(=O)N[C@@H](CC(C)C)C(=O)NCCC(=O)N[C@@H](C)CNCCO (Butyryl-PM[Aib][Aib][Gly(octyl)]L[Aib]L[βAla]-{NH((S)CH(Me)CH2NHC2H4OH)})
10 | 17 | 16 | 21 | 72 | CCCCCCCC[C@H](NC(=O)C(C)(C)NC(=O)C(C)(C)NC(=O)[C@@H](NC(=O)[C@@H]1CCCN1C(=O)CCC)C12CC3CC(CC(C3)C1)C2)C(=O)N[C@@H](CC(C)C)C(=O)NC(C)(C)C(=O)N[C@@H](CC(C)C)C(=O)NCCC(=O)N[C@@H](C)CNCCO (Butyryl-P[Gly(1-adamantyl)][Aib][Aib][Gly(octyl)]L[Aib]L[βAla]-{NH((S)CH(Me)CH2NHC2H4OH)})
11 | 36 | 29 | 29 | 118 | CCCCCCCC[C@H](NC(=O)C(C)(C)NC(=O)C(C)(C)NC(=O)C1(NC(=O)[C@@H]2CCCN2C(=O)CCC)CCCC1)C(=O)N[C@@H](CC(C)C)C(=O)NC(C)(C)C(=O)N[C@@H](CC(C)C)C(=O)NCCC(=O)N[C@@H](C)CNCCO (Butyryl-P[Ac5c][Aib][Aib][Gly(octyl)]L[Aib]L[βAla]-{NH((S)CH(Me)CH2NHC2H4OH)})
12 | 5 | 6 | 7 | 18 | CCCCCCCC[C@H](NC(=O)C(C)(C)NC(=O)C(C)(C)NC(=O)[C@H](CCCC(=O)CCCC)NC(=O)[C@H](C)N)C(=O)N[C@@H](CC(C)C)C(=O)NC(C)(C)C(=O)N[C@@H](CC(C)C)C(=O)NCCC(=O)N[C@@H](C)CNCCO (H-A[Nva(5-pentanoyl)][Aib][Aib][Gly(octyl)]L[Aib]L[βAla]-{NH((S)CH(Me)CH2NHC2H4OH)})
13 | 23 | 15 | 21 | 60 | CCCCCCCC[C@H](NC(=O)C(C)(C)NC(=O)C(C)(C)NC(=O)[C@H](Cc1c[nH]c2ccccc12)NC(=O)[C@@H]1CCCN1C(=O)CCC)C(=O)N[C@@H](CC(C)C)C(=O)NC(C)(C)C(=O)N[C@@H](CC(C)C)C(=O)NCCC(=O)N[C@@H](C)CNCCO (Butyryl-PW[Aib][Aib][Gly(octyl)]L[Aib]L[βAla]-{NH((S)CH(Me)CH2NHC2H4OH)})
14 | 44 | 31 | 42 | 75 | CCCCCCCC[C@H](NC(=O)C(C)(C)NC(=O)[C@H](C)NC(=O)[C@H](CCCC(=O)CCCC)NC(=O)C1CCCN1C(=O)CCC)C(=O)N[C@@H](CC(C)C)C(=O)NC(C)(C)C(=O)N[C@@H](CC(C)C)C(=O)NCCC(=O)N[C@@H](C)CNCCO (stereo partly drawn) (Butyryl-[ξP][Nva(5-pentanoyl)]A[Aib][Gly(octyl)]L[Aib]L[βAla]-{NH((S)CH(Me)CH2NHC2H4OH)})
15 | 5 | 7 | 5 | 15 | CCCCCCCC[C@H](NC(=O)[C@@H]1CCCN1C(=O)CCC)C(=O)NC(C)(C)C(=O)NC(C)(C)C(=O)N[C@@H](CCCCCCCC)C(=O)N[C@@H](CC(C)C)C(=O)NC(C)(C)C(=O)N[C@@H](CC(C)C)C(=O)NCCC(=O)N[C@@H](C)CNCCO (Butyryl-P[Gly(octyl)][Aib][Aib][Gly(octyl)]L[Aib]L[βAla]-{NH((S)CH(Me)CH2NHC2H4OH)})
